Laboratory results published in US7202261B2, “Calcilytic compounds” (NPS Pharmaceuticals, Inc., priority 1996, dated 2007).
Counter-ions that a name gives are not always drawn. Like-named read-outs stand apart in the source and are kept apart here.

Biological target: T1, human calcium receptor (Homo sapiens, UniProt P41180)
T1 construct: expressed in transfected cells
T1 sequence (P41180 20-1078): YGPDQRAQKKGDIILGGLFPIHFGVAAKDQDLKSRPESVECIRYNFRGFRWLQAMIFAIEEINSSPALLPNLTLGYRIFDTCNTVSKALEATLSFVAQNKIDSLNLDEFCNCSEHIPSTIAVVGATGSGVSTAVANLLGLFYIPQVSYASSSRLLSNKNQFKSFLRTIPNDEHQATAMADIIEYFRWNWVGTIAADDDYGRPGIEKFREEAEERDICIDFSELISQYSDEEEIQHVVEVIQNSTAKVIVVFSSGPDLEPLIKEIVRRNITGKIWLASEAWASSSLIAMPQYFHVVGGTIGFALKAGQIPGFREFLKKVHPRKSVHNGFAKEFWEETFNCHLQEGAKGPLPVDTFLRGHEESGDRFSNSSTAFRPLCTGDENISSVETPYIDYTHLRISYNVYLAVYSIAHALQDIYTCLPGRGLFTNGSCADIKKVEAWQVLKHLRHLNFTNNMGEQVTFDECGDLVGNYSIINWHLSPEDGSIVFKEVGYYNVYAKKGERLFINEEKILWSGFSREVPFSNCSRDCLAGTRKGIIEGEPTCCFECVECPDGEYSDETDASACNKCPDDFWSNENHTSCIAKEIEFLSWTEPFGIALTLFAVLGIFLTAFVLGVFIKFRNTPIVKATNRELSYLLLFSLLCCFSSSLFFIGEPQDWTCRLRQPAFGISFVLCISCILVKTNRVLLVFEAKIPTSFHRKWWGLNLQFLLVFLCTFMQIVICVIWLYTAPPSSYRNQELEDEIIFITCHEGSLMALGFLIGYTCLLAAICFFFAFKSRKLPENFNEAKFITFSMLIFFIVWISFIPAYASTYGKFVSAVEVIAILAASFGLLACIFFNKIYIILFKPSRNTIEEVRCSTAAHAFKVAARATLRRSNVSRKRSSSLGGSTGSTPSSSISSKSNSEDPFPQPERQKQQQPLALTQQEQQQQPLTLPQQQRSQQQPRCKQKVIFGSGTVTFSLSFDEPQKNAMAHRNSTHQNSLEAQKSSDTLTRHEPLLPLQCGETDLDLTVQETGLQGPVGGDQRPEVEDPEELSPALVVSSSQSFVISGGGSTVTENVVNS
Assay: Calcium Receptor Inhibitor Assay
Type: cell-based
Method: This example illustrates the use of the Calcium Receptor Inhibitor Assay. […] Res. 10 Suppl. […] Intracellular Ca^2+ was measured using fluo-3, a fluorescent calcium indicator.
The procedure was as follows:
1. Cells were maintained in T-150 flasks in selection media (DMEM supplemented with 10% fetal bovine serum and 200 μg/mL hygromycin B), under 5% CO2:95% air at 37° C. and were grown up to 90% confluency.
2. The medium was decanted and the cell monolayer was washed twice with phosphate-buffered saline (PBS) kept at 37° C. After the second wash, 6 mL of 0.02% EDTA in PBS was added and incubated for 4 minutes at 37° C. Following the incubation, cells were dispersed by gentle agitation.
3. Cells from 2 or 3 flasks were pooled and pelleted (100×g). The cellular pellet was resuspended in […] of SPF-PCB+ and pelleted again by centrifugation. This washing was done twice.
SPF-PCB was made up and stored at 4° C. On the day of use, SPF-PCB was supplemented with 1 mg/mL of D-glucose and 1 mM CaCl2 and then split into two fractions. To one fraction, bovine serum albumin (BSA; fraction V, ICN) was added at 5 mg/mL (SPF-PCB+). This buffer was used for washing, loading and maintaining the cells. The BSA-free fraction was used for diluting the cells in the cuvette for measurements of fluorescence.
5. Following the incubation period, the cells were pelleted by centrifugation. The resulting pellet was washed with SPF-PCB+. After this washing, cells were resuspended in SPF-PCB+ at a density of 1–2×10^6 cells/mL.
6. For recording fluorescent signals, 300 μL of cell suspension were diluted in 1.2 mL of SPF buffer containing 1 mM CaCl2 and 1 mg/mL of D-glucose. Measurements of fluorescence were performed at 37° C. with constant stirring using a spectrofluorimeter. […] To calibrate fluorescence signals, digitonin (5 mg/mL in ethanol) was added to obtain Fmax, and the apparent Fmin was determined by adding Tris-EGTA (2.5 M Tris-Base, 0.3 M EGTA).
7. To determine the potential calcilytic activity of test compounds, cells were incubated with test compound (or vehicle as a control) for 90 seconds before increasing the concentration of extracellular Ca^2+ from 1 to 2 mM. Calcilytic compounds were detected by their ability to block, in a concentration-dependent manner, increases in the concentration of intracellular Ca^2+ elicited by extracellular Ca^2+.

[1] = HEK 293 4.0–7 cells stably expressing the human calcium receptor, fluo-3, read-out: IC50 for blocking increases of intracellular Ca2+ elicited by extracellular Ca2+

| SMILES | IC50 [1] | IC50 |
| --- | --- | --- |
| COc1ccc(CC(C)(C)NCC(O)COc2ccc(C)cc2)cc1 (stereo not shown) [Compound 135, N-[2-hydroxy-3-(4-methylphenoxy)propyl]-1,1-dimethyl-2-(4-methoxyphenyl)ethylamine Hydrochloride] | < 1000 nM |  |
| COc1ccc(CC(C)(C)NCC(O)COCC23CC4CC(CC(C4)C2)C3)cc1 (stereo not shown) [Compound 74, N-[2-Hydroxy-3-(1-adamantylmethoxy)propyl]-1,1-dimethyl-2-(4-methoxyphenyl)ethylamine Hydrochloride] | < 1000 nM |  |
| CCCCCCCCCCOCC(O)CNC(C)(C)Cc1ccc(OC)cc1 (stereo not shown) [Compound 67, N-(2-Hydroxy-3-decanoxypropyl)-1,1-dimethyl-2-(4-methoxyphenyl)ethylamine] | < 1000 nM |  |
| COc1ccc(CC(C)(C)NCC(O)COc2cccc(C#N)c2)cc1 (stereo not shown) [Compound 160, N-[2-hydroxy-3-(3-cyanophenoxy)propyl]-1,1-dimethyl-2-(4-methoxyphenyl)ethylamine Hydrochloride] | < 1000 nM |  |
| COc1ccc(CC(C)(C)NCC(O)COc2cccc(OC(F)(F)F)c2)cc1 (stereo not shown) [Compound 154, N-[2-hydroxy-3-(3-trifluoromethoxyphenoxy)propyl]-1,1-dimethyl-2-(4-methoxyphenyl)ethylamine Hydrochloride] | < 1000 nM |  |
| COc1ccc(CC(C)(C)NCC(O)CCCC[N+](=O)[O-])cc1 (racemic) [Compound 164, (R/S)-1-nitro-5-hydroxy-6-[1,1-dimethyl-2-(4-methoxyphenyl)]hexane] |  | < 50000 nM |
| COc1ccc(CC(C)(C)NCc2ccccc2)cc1 [Compound 34, N-(Benzyl)-1,1-dimethyl-2-(4-methoxyphenyl)ethylamine] |  | > 50000 nM |
| COc1ccc(CC(C)(C)NCC(O)Cc2ccccc2)cc1 (stereo not shown) [Compound 37, N-(2-Hydroxy-3-phenylpropyl)-1,1-dimethyl-2-(4-methoxyphenyl)ethylamine Hydrochloride] |  | < 10000 nM |
| CCC(C)(Cc1ccc(OC)cc1)NCC(O)COc1ccccc1 (stereo not shown) [Compound 113, N-(2-Hydroxy-3-phenoxypropyl)-1-ethyl-1-methyl-2-(4-methoxyphenyl)ethylamine Hydrochloride] | < 1000 nM |  |
| COc1ccc(CC(C)(C)NCC(O)COc2cccc(Cl)c2C#N)cc1 (stereo not shown) [Compound 119, N-[2-Hydroxy-3-(3-chloro-2-cyanophenoxy)propyl]-1,1-dimethyl-2-(4-methoxyphenyl)ethylamine Hydrochloride] | < 1000 nM |  |
| COc1ccc(CC(C)(C)NCC(O)COc2cccc(C(C)(C)C)c2)cc1 (stereo not shown) [Compound 50, N-[2-Hydroxy-3-(3-t-butylphenoxy)propyl]-1,1-dimethyl-2-(4-methoxyphenyl)ethylamine Hydrochloride] | < 1000 nM |  |
| COc1ccc(CC(C)(C)NCC(O)COc2cccc(C(C)C)c2)cc1 (stereo not shown) [Compound 146, N-[2-hydroxy-3-(3-iso-propylphenoxy)propyl]-1,1-dimethyl-2-(4-methoxyphenyl)ethylamine Hydrochloride] | < 1000 nM |  |
| COc1ccc(CC(C)(C)NC[C@@H](O)COc2ccc(C(C)(C)C)cc2)cc1 (racemic) [Compound 20, (R) and (S)—N-[2-Hydroxy-3-(4-t-butylphenoxy)propyl]-1,1-dimethyl-2-(4-methoxyphenyl)ethylamine Hydrochloride] | < 1000 nM |  |
| COc1ccc(CC(C)(C)NC[C@H](O)COc2cccc(Cl)c2Cl)cc1 [Compound 116, (S)—N-[2-Hydroxy-3-(2,3-dichlorophenoxy)propyl]-1,1-dimethyl-2-(4-methoxyphenyl)ethyl amine Hydrochloride] | < 1000 nM |  |
| CCc1ccc(CC(C)(C)NCC(O)COc2ccccc2)cc1 (stereo not shown) [Compound 110, N-(2-Hydroxy-3-phenoxypropyl)-1,1-dimethyl-2-(4-ethylphenyl)ethylamine Hydrochloride] | < 10000 nM |  |
| COc1ccc(CC(C)(C)NCC(O)COc2cc(C(F)(F)F)cc(C(F)(F)F)c2)cc1 (stereo not shown) [Compound 156, N-[2-hydroxy-3-(3,5-bistrifluoromethylphenoxy)propyl]-1,1-dimethyl-2-(4-methoxyphenyl)ethylamine Hydrochloride] | < 1000 nM |  |
| COc1ccc(CC(C)(C)NCC(O)COC23CC4CC(CC(C4)C2)C3)cc1 (stereo not shown) [Compound 96, N-[2-Hydroxy-3-(1-adamantanoxy)propyl]-1-1,1-dimethyl-2-(4-methoxyphenyl)ethyl amine] | < 1000 nM |  |
| CC(C)(Cc1ccc(Cl)cc1)NCC(O)COc1ccccc1 (stereo not shown) [Compound 103, N-(2-Hydroxy-3-phenoxypropyl)-1,1-dimethyl-2-(4-chlorophenyl)ethylamine Hydrochloride] | < 10000 nM |  |
| CCc1cccc(OCC(O)CNC(C)(C)Cc2ccc(OC)cc2)c1 (stereo not shown) [Compound 150, N-[2-Hydroxy-3-(3-ethylphenoxy)propyl)-1,1-dimethyl-2-(4-methoxyphenyl)ethylamine Hydrochloride] | < 1000 nM |  |
| COc1ccc(CC(C)(C)NCC(O)COc2ccccc2NC(C)=O)cc1 (stereo not shown) [Compound 52, N-[2-hydroxy-3-(2-acetamidophenoxy)propyl]-1,1-dimethyl-2(4-methoxyphenyl)ethylamine] | > 50000 nM |  |
| COc1ccc(CC(C)(C)NCC(O)CCc2cccc3ccccc23)cc1 (racemic) [Compound 162, (R/S)-1-[[2,2-dimethyl-(4′methoxy)phenethyl]]amino-2-hydroxy-4(1′-naphthyl)-butane] | < 10000 nM |  |
| CC(C)(Cc1ccc(Cl)c(Cl)c1)NC[C@@H](O)COc1c(C#N)sc2ccccc12 [Compound 166] | < 1000 nM |  |
| COc1ccc(CC(C)(C)NCCCOc2cccc3ccccc23)cc1 [Compound 42, N-(3-(1-napthoxy)propyl)-1,1-dimethyl-2-(4-methoxyphenyl)] | < 50000 nM |  |
| Cc1ccc(CC(C)(C)NCC(O)COc2ccccc2)cc1 (stereo not shown) [Compound 98, N-(2-Hydroxy-3-phenoxypropyl)-1,1-dimethyl-2-(4-methylphenyl)ethylamine Hydrochloride] | < 10000 nM |  |
| COc1ccc(CC(C)(C)NCC(O)COc2ccc(C#N)cc2)cc1 (stereo not shown) [Compound 161, N-(2-hydroxy-3-(4-cyanophenoxy)propyl]-1,1-dimethyl-2-(4-methoxyphenyl)ethylamine Hydrochloride] | < 10000 nM |  |
| COc1ccc(CC(C)(C)NCC(O)COc2cccc([N+](=O)[O-])c2)cc1 (stereo not shown) [Compound 143, N-[2-hydroxy-3-(3-nitrophenoxy)propyl]-1,1-dimethyl-2-(4-methoxyphenyl)ethylamine Hydrochloride] | < 1000 nM |  |
| COc1ccc(CC(C)(C)NCC(O)COc2cccc(-c3ccccc3)c2)cc1 (stereo not shown) [Compound 61, N-[2-hydroxy-3-(3-phenylphenoxy)propyl]-1,1-dimethyl-2-(4-methoxyphenyl)ethylamine] | < 10000 nM |  |
| COc1ccc(CC(C)(C)NCCCOc2ccccc2)cc1 [Compound 17, N-(3-Phenoxypropyl)-1,1-dimethyl-2-(4-methoxyphenyl)ethylamine Hydrochloride] | < 50000 nM |  |
